Three compounds from patent publication US6514997B2, “Antipicornaviral compounds and compositions, their pharmaceutical uses, and materials for their synthesis” (Agouron Pharmaceuticals, Inc., priority 1999, dated 2003) can be followed below.

One series has as its system echovirus 9 (ECHO-9). Briefly: Antiviral cell culture assay (EC50), echovirus 9. Format: cell-based. To be noted: Enterovirus B; ECHO9.
A short description of series [1]: Cytotoxicity (CC50), cell line not stated. Format: cell-based.
Another series concerns coxsackievirus B2 (CVB2). Briefly: Antiviral cell culture assay (EC50), coxsackievirus B2. It counts as cell-based. Conditions: Enterovirus B.
The test system of series [2] is strains of human rhinovirus (HRV). Put plainly: Antirhinoviral H1-HeLa cell culture assay (XTT cell protection, EC50), other HRV strains. To be noted: read-out: EC50. It counts as cell-based, human rhinovirus in H1-HeLa cells. The procedure, abridged: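 Protection of H1-HeLa cells from rhinovirus was scored two days post-infection via XTT dye reduction read at 450/650 nm, alongside mock-infected cells for toxicity. CC50/EC50 gives the therapeutic index.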

The subject of series [3] is coxsackievirus B5 (CVB5). Put plainly: Antiviral cell culture assay (EC50), coxsackievirus B5. Format: cell-based. Conditions: Enterovirus B.
Series [4] relates to Coxsackievirus type A-21 (CAV-21). Briefly: Anticoxsackieviral cell culture assay (XTT, EC50), CAV-21. Conditions: Coxsackievirus. It counts as cell-based, coxsackievirus A-21 in H1-HeLa cells. How it is done:
Anticoxsackieviral Cell Culture Assay:
Coxsackievirus types A-21 (CAV-21) and B3 (CVB3) were purchased from American Type Culture Collection (ATCC, Rockville, Md.). Virus stocks were propagated and antiviral assays were performed in H1-HeLa cells (ATCC). Cells were grown in minimal essential medium with 10% fetal bovine serum (Life Technologies, Gaithersburg, Md.). The ability of the compounds of this invention to protect cells against either CAV-21 or CVB3 infection was measured by the XTT dye reduction method. This method is described in Weislow et al., J. Natl. Cancer Inst. (1989), vol. 81, 577-586. H1-HeLa cells were infected with CAV-21 or CVB3 at a multiplicity of infection (m.o.i.) of 0.025 or 0.075, respectively, or mock-infected with medium only. H1-HeLa cells were plated at 4×10^4 cells per well in a 96-well plate and incubated with appropriate concentrations of the test compound. One day (CVB3) or two days (CAV-21) later, XTT/PMS was added to test plates and the amount of formazan produced was quantified spectrophotometrically at 450/650 nm. […] The therapeutic index (TI) was calculated by dividing the CC50 by the EC50.
Background: Formazan colour is commonly taken as a measure of viable cells.

In series [5] the test system is Echovirus type 11 (ECHO 11). Briefly: Anti-echoviral cell culture assay (XTT, EC50), ECHO 11. It counts as cell-based, echovirus 11 in MRC-5 cells. To be noted: Enterovirus B. As to the method:
Anti-Echoviral and Anti-Enteroviral Cell Culture Assays
(§1) Echovirus type 11 (ECHO 11) was purchased from ATCC (Rockville, Md.). Virus stocks were propagated and antiviral assays were performed in MRC-5 cells (ATCC). Cells were grown in minimal essential medium with 10% fetal bovine serum (Life Technologies, Gaithersburg, Md.). The ability of the compounds of this invention to protect cells against ECHO 11 infection was measured by the XTT dye reduction method (Weislow et al., J. Natl. Cancer Inst. (1989), vol. 81, 577-586). MRC-5 cells were infected with ECHO 11 at an m.o.i. of 0.003 or 0.004, respectively, or mock-infected with medium only. Infected or uninfected cells were added at 1×10^4 cells per well and incubated with appropriate concentrations of compound. Four days later, XTT/PMS was added to test plates, and the amount of formazan produced was quantified spectrophotometrically at 450/650 nm. […] The therapeutic index (TI) was calculated by dividing the CC50 by the EC50. Activity of the compounds against enterovirus type 70 (EV 70) may be measured by the same assay as described above in this section. Enterovirus type 70 (EV 70) may be obtained from the American Type Culture Collection ATCC (Rockville, Md.).

For a further series, the system named is echovirus 6 (ECHO-6). Briefly: Anti-echoviral cell culture assay (EC50), ECHO-6. Conditions: Enterovirus B. Format: cell-based.
Series [6] concerns coxsackievirus B5 (CVB5). Put plainly: Anticoxsackieviral cell culture assay (EC50), CVB5. It counts as cell-based. Conditions: Enterovirus B.
Series [7] is described as follows: Cytotoxicity (CC50) in uninfected MRC-5 cells, XTT dye reduction. To be noted: human, MRC-5 cells, uninfected (mock-infected); line of ECHO-11. It counts as cell-based, human. How it is done: as §1
The next series relates to MRC-5 cells. The series is described as above. It counts as cell-based, human. How it is done:
as §1

Where [8] appears, read: Human rhinovirus sp., H1-HeLa, HRV-Hanks.
Setting [9] is: Human rhinovirus sp., HRV3, H1-HeLa, HRV-3.
The mark [10] stands for this setting: Human rhinovirus sp., HRV9, H1-HeLa, HRV-9.
Setting [11] is: Human rhinovirus sp., HRV10, H1-HeLa, HRV-10.
Setting [12] is: Human rhinovirus sp., HRV11, H1-HeLa, HRV-11.
Setting [13] is: Human rhinovirus sp., HRV13, H1-HeLa, HRV-13.
[14] abbreviates: Human rhinovirus sp., HRV16, H1-HeLa, HRV-16.
[15] abbreviates: Human rhinovirus sp., HRV19, H1-HeLa, HRV-19.
[16] abbreviates: Human rhinovirus sp., HRV25, H1-HeLa, HRV-25.
[17] abbreviates: Human rhinovirus sp., HRV39, H1-HeLa, HRV-39.
The mark [18] stands for this setting: Human rhinovirus sp., HRV78, H1-HeLa, HRV-78.

pEC50: −log10 of the molar value. Read-outs that look alike come from different tables or passages of the source.

For orientation: pEC50 means the negative decadic logarithm of the EC50, by convention in mol/L. In general, CC50 refers to the concentration at which the toxic effect on the cells reaches its halfway point. Low readings indicate harm at low concentration, high ones better tolerance by the cells. Turning to `C#CC[C@@H](C(=O)N[C@H](/C=C/C(=O)OCc1ccccc1)C[C@@H]1CCNC1=O)n1cccc(NC(=O)c2cc(C)on2)c1=O` [Compound 63, trans-(2′S,3′″″S,4S)-4-[2′-(3″-{[1′″-(5″″-Methylisoxazol-3″″-yl)methanoyl]amino}-2′″-oxo-2′″H-pyridin-1′″-yl)pent-4″-ynoylamino]-5-(2′″″-oxopyrrolidin-3′″″-yl)pent-2-enoic Acid Benzyl Ester], the pEC50 with echovirus 9 (ECHO-9) was 8.70; in the series with coxsackievirus B2 (CVB2), 7.92; in [2] (H1-HeLa, HRV-1A), 7.92; in [2] (H1-HeLa, HRV-2), 7.62; in series [2] (H1-HeLa, HRV-23), 7.43; in [2] (setting [8]), 6.40. The pEC50 in [2] (setting [9]) was 7.57; in series [2] (setting [10]) it was 7.19; in series [2] (setting [11]) it was 7.34; in series [2] (setting [12]), 7.77; in [2] (setting [13]), 7.35; in series [2] (setting [14]), 7.34. Further, the pEC50 is 7.85 in [2] (setting [15]); 8.15 in series [2] (setting [16]); 7.46 in series [2] (setting [17]); 7.47 in series [2] (setting [18]); 8.00 in the series with coxsackievirus B5 (CVB5) [3]; 6.82 in series [4] (H1-HeLa). The CC50 in [1] (CVB2), in series [1] (CVB5) and in series [1] (ECHO9) was > 10000 nM each time.

Take `CC[C@@H](C(=O)N[C@H](/C=C/C(=O)OCc1ccccc1)C[C@@H]1CCNC1=O)n1cccc(NC(=O)c2cc(C)on2)c1=O` [Compound 62, trans-(2′S,3′″″S,4S)-4-[2′-(3″-{[1′″-(5″″-Methylisoxazol-3″″-yl)methanoyl]amino}-2′″oxo-2′″H-pyridin-1′″-yl)butanoylamino]-5-(2′″″-oxopyrrolidin-3′″″-yl)pent-2-enoic Acid Benzyl Ester]: the pEC50 was 8.40 with echovirus 9 (ECHO-9); 7.80 with coxsackievirus B2 (CVB2); 7.77 in series [2] (H1-HeLa, HRV-1A); 7.35 in series [2] (H1-HeLa, HRV-2); 7.49 in series [2] (H1-HeLa, HRV-23); 7.28 in [2] (setting [8]). The pEC50 in series [2] (setting [9]) is 7.28; in series [2] (setting [10]) it was 6.89; in series [2] (setting [11]) it was 7.28; in series [2] (setting [12]) it was 8.00; in [2] (setting [13]), 8.40; in [2] (setting [14]), 7.28. Also, the negative-log EC50 (pEC50) in series [2] (setting [15]) was 7.68; in series [2] (setting [16]), 7.74; in [2] (setting [17]), 7.37; in series [2] (setting [18]) it was 7.24; in the series on coxsackievirus B5 (CVB5) [3] it was 7.70; in series [4] (H1-HeLa), 6.53. In addition, the CC50 in series [1] (CVB2), in series [1] (CVB5) and in series [1] (ECHO9) was > 10000 nM throughout.

As a reminder, the melting point is the temperature, or range, at which the solid turns liquid. For `C#CC[C@@H](C(=O)N[C@H](/C=C/C(=O)OC(C)(C)C)C[C@@H]1CCNC1=O)n1cccc(NC(=O)c2cc(C)on2)c1=O` [Compound 41, trans-(2′S,3′″″S,4S)-4-[2′-(3″-{[1′″-(5″″-Methylisoxazol-3″″-yl)methanoyl]amino}-2′″-oxo-2′″H-pyridin-1′″-yl)pent-4″-ynoylamino]-5-(2′″″-oxopyrrolidin-3′″″-yl)pent-2-enoic Acid tert-Butyl Ester], the melting point is 195 °C (dec.). Further, the pEC50 in series [5] is 6.73. Moreover, the pEC50 with echovirus 6 (ECHO-6) is 6.83. In series [2] (H1-HeLa, HRV-2), the pEC50 is 6.81. Moreover, in series [2] (setting [9]), the pEC50 is 7.27. For the same compound, the pEC50 in [2] (setting [10]) is 6.25. In addition, in [2] (setting [14]), the pEC50 was 6.38. Besides, the pEC50 in [2] (setting [16]) was 6.08. Besides, the pEC50 in series [2] (setting [17]) was 6.35. Also, the pEC50 in [2] (Human rhinovirus sp., HRV87, H1-HeLa, HRV-87) was 7.22. In addition, in the series with coxsackievirus B5 (CVB5) [6], the pEC50 was 6.70. In [4], this compound gave a pEC50 of 6.23. In series [7], the CC50 at 4 days is > 10000 nM. Further, the CC50 in the series on MRC-5 cells (line of ECHO-6) was > 10000 nM. Besides, the CC50 with MRC-5 cells (line of ECHO-9) was > 10000 nM.
